Assay results reported in patent US20170269061A1, “METHOD FOR ASSESSING SENSITIVITY OF A TARGET DRUG IN VITRO AND A BIOMARKER USED THEREOF” (Tunghai University, priority 2016, published 2017).

Tests used:
[1] = test system: MDA-MB-231, SKBR-3 and BT-474 cells; experiment: Phase contrast observation of treated cells (Cell Experiment II); format: cell-based; settings: 1 μg/ml paclitaxel, 72 hour; compared with 10 μg/ml trastuzumab and 1 μg/ml T-DM1
SKBR-3 cells [2] = settings: 1 μg/ml T-DM1 vs 10 μg/ml trastuzumab, 72 hour, p<0.01
Procedure: After culturing each of the cells under different condition in example 7, 0.1 ml of 0.4% trypan blue and deionized water (1:1) was added. Dead cells were stained blue, while live cells remained unstained. Therefore, the number of dead cells could be estimated and cell viability estimated with a hemocytometer. Wherein, the cell mortality was expressed as the percentage of trypan blue-positive cells compared to the total number of cells and the viability percentage was presented by the number of live cells divided by the number of untreated control cells×100.

SKBR-3 cells [3] = settings: SKBR-3 with caveolin-1 siRNA; T-DM1 72 hours; p<0.05
Procedure: BT-474 cells were grown on plates in normal growth medium without antibiotics, and Lipofectamine 2000 transfection reagent (Invitrogen, ThermoFisher, Waltham, Mass., USA) was used to induce GFP-tagged caveolin-1 (Addgene, Cambridge, Mass., USA) overexpression. Caveolin-1siRNA (Dharmacon, GE health care, Lafayette, Colo., USA) was used in the knockdown experiment in SKBR-3 cells.

BT-474 cells = experiment: Immunofluorescence microscopy of drug localization (Cell Experiment I); format: cell-based; settings: T-DM1 1 μg/ml or trastuzumab 10 μg/ml for 30 min
Procedure: (§1) After washing, each of the cells was fixed with 3.7% formaldehyde and permeabilized with 0.1% Triton-X 100. The fixed cells were incubated with rabbit anti-caveolin-1 antibody (1:100 dilution in PBS/0.1% Triton-100/3% BSA) at room temperature for 1 hour and then incubated with Cy3-conjugated anti-rabbit secondary antibodies (1:200 dilution in PBS/0.1% Triton-100/3% BSA) at room temperature for 1 hour.

SKBR-3 cells [4] = experiment: as above; format: cell-based; settings: T-DM1 1 μg/ml or trastuzumab 10 μg/ml for 30 min, co-staining with caveolin-1
Procedure: as §1

SKBR-3 cells [5] = test system: SKBR-3 cells
Procedure: Pro-survival protein Bcl-2 expression in each of the cells, culturing under different condition in example 7 at 48 hours, were determined by Western blot.
Using an annexin V detection kit (Invitrogen, ThermoFisher, Waltham, Mass., USA) to label cell surface phosphatidylserine of apoptotic cells and analysis these stained cells by flow cytometry. […] Co-staining images were taken by inverted fluorescence microscope shown in FIG. 15, wherein green color indicates annexin V positive apoptotic cell, red color indicates PI positive necrotic cell. Annexin V stained cells with PI positive staining were excluded as necrotic cells, apoptotic cells with only annexin V staining were counted and divided by total cells as the percentage of apoptosis. […] And, annexin V positive/PI negative apoptosis in FIG. 15 was quantified.

Molecule	cytotoxicity (phase contrast) [1]	cell sensitivity (cell viability) versus trastuzumab (SKBR-3 cells [2])	T-DM1 efficacy on CAV-1 knockdown (SKBR-3 cells [3])	localization of drug in cells (BT-474 cells)	localization of drug in cells (SKBR-3 cells [4])	Bcl-2 expression level (SKBR-3 cells [5]; 1 μg/ml T-DM1, 48 hours, Western blot)	drug sensitivity (cell viability) with pan-caspase inhibitor Z-VAD-FMK (SKBR-3 cells [5]; 1 μg/ml T-DM1 plus Z-VAD-FMK)	necrotic cells (PI staining) (SKBR-3 cells [5]; T-DM1 treated)	percentage of apoptosis (annexin V) (SKBR-3 cells [5]; T-DM1 treated)
CC(=O)O[C@H]1C(=O)[C@@]2(C)[C@H]([C@H](OC(=O)c3ccccc3)[C@]3(O)C[C@H](OC(=O)[C@H](O)[C@@H](NC(=O)c4ccccc4)c4ccccc4)C(C)=C1C3(C)C)[C@]1(OC(C)=O)CO[C@@H]1C[C@@H]2O [paclitaxel]	most cytotoxicity								
trastuzumab emtansine [T-DM1]		significantly more sensitive	significantly reduced T-DM1 efficacy	localized only in the cell membrane	colocalized in the SKBR-3 cell membrane and cytosol	lower level of Bcl-2	decreased	fewer necrotic cells	increased percentage of apoptosis
